Experimental data reported in patent publication US10301314B2, “Compounds and methods for the prevention and treatment of tumor metastasis and tumorigenesis” (The United States of America, as represented by the …, priority 2011, dated 2019).
Like-named read-outs stand apart in the source and are kept apart here.

Columns and labels:
[1] = tested on: PC3M cell line that stably expresses GFP-PTB to mark PNCs; test: High content assay for PNC detection (reduction of PNC prevalence); format: cell-based, human; conditions: PC3M GFP-PTB cells; for AC50 / IC50: Homo sapiens, PC-3M; for AC50: Table 3; for IC50 / PNC IC50(μM): Table 4, 16 hrs incubation
Excerpt: The quantitative output for this assay is the reduction of PNC prevalence. The PNC can be detected in living cells by the expression of a green fluorescent protein (GFP) tagged to the PNC localized protein, PTB. A PC3M cell line was used that stably expresses GFP-PTB to mark PNCs. This method eliminates the need for immunofluorescent staining.
The IN Cell Analyzer 1000 automated fluorescent imaging system (GE Healthcare, Piscataway, N.J.) was used for automated image acquisition. […] The instrument acquired images of each well in a 1536-well plate with a laser-based autofocus system. To score PNC prevalence in a high-content throughput, the Multi-Target Analysis (MTA) algorithm (GE Healthcare, Investigator v3.5) to identify individual cells and granules (PNCs) within these cells was used. The nucleus was segmented via a region growing method (50 μm^2 minimum area) with light shading and noise removal to allow “touching” nuclei to be separated. Granules in the nucleus (PNCs) were segmented using a multiscale top hat method, which measures granules of 1 to 2 μm in size and used a smart masking method to identify the boundaries of each segmented granule. The algorithm was optimized and validated using positive and negative controls (50 μM camptothecin and DMSO, respectively). In particular, the MTA algorithm allows for the identification of multiple subcellular compartments and organelles (or granules) within those compartments. In this instance, the algorithm's capability to identify objects within the same color channel that only differ in size or fluorescent intensity was utilized. Also, the algorithm allows for building complex hierarchical classification systems, using output measures within the algorithm to filter and define subpopulations. For this particular assay, PNC-positive cells were scored when 1 to 3 PNC granules were detected per nucleus. Cells that contained 0 granules were scored as PNC negative, and cells with >3 granules were assumed to be false positives (very few cells have more than 3 PNCs in one focus plane), and were also scored as PNC negative.

[2] = tested on: PC3M reporter cell line stably expressing the PTB-GFP; test: ATP quantitation assay (ATPLite); format: cell-based, human; conditions: Table 4, PC3M cells, 24 hrs incubation; for IC50: Homo sapiens, PC-3M
Procedure: This follow-up assay was conducted to measure the effect of compounds on cell health by measuring ATP levels (ATPLite™). ATPLite™ is an ATP monitoring system based on firefly (Photinus pyralis) luciferase. The level of ATP in a metabolically active cell is a general marker for its viability. ATP levels are often reduced during necrosis or apoptosis. In this assay, the luciferase enzyme catalyzes the conversion of the added substrate D-luciferin to oxyluciferin and light with ATP. Thus, the emitted light is proportional to the ATP concentration. For this assay, the highly metastatic PC3M reporter cell line stably expressing the PTB-GFP was provided by Professor Sui Huang of Northwestern University. The media and cell culture reagents were purchased from Invitrogen (Carlsbad, Calif.), ATPLite™ came from PerkinElmer.

PC3M cells [3] = test: Tumor cell migration/invasion assay through 3D fibrillar collagen (Iuvo Single Microchannel Plate); format: cell-based; conditions: Homo sapiens, PC-3M, 120 h, 5 days
Procedure: High-content tumor cell migration assays in 3-dimensional extracellular matrices are powerful tools for modeling and understanding the biology of this critical step in the process of metastasis. However, most of the available methods are not amenable to the throughput required by studies of comparative pharmacology or small scale screening. For this reason, compounds were tested in BellBrook Labs™ automated high-content tumor cell invasion assays. A standard screening-sized plate with an array of embedded microchannels was designed and constructed from common thermoplastics.
PC3M cells were tested for invasion through 3D fibrillar collagen in the luvo Single Microchannel Plate, in the presence of varying levels of test compounds. Channels were prefilled with 820 nL of 3-dimensional type I collagen at 1 mg/mL, through the input port. Following gelation, 2,000 PC3M cells were seeded into the output port using growth media (RPMI+10% FBS with antibiotics) in a volume of 5 μL. Cells were incubated in a 37° C. incubator inside a humidified container to control evaporation (Bioassay dish, Corning). Media, including test compounds, was changed daily for 5 days. At the end of the assay, cells were fixed and stained with Hoechst 33342, then imaged with 4× objective under epifluorescence. Under these conditions, cells across the 140 μm height range of the microchannel can be reliably identified. Test compounds were serially diluted by a factor of 3 to produce 10 concentrations ranging from 50 or 100 μM to 2.5 nM. All assays were conducted in the presence of 0.1% DMSO. Four replicates were performed for all test concentrations. Each plate had 4 dose response curves, as well as 16 channels with no compound and 16 channels with 50 μM blebbistatin (positive control). Analysis was done by automatically cropping each image at the right edge of the channel and counting cells via the ‘count nuclei’ function on Metamorph (Molecular Devices). Non-linear regression analysis was performed with GraphPad Prism.

PC3M cells [4] = test: Soft agar colony formation assay (anchorage independent growth); format: cell-based, human; conditions: after 14 days; 3.8, 18.6 nM
Procedure: Compound 2 was tested for its ability to affect anchorage independent growth in a soft agar assay, a stringent method to detect malignant transformation of cells in vitro. […] The left hand side of FIG. 1 illustrates a histogram representing the number and size of PC3M soft agar colonies after 14 days of treatment with compound 2 at two different concentrations. A clear reduction of the number of colonies of PC3M cells was observed, particularly at a compound concentration of 18.6 nM. The right hand side of FIG. 1 illustrates two representative images taken at two different regions of the soft agar medium after treatment with DMSO (vehicle) (top row), compound 2 at 3.8 nM (middle row), and compound 2 at 18.6 nM (bottom row).

[5] = PC3M cells in output port, read-out: Proliferation output port IC50
[6] = PC3M cells, 3D type I collagen, read-out: Invasion cell # IC50

| Structure (SMILES) | IC50 [2] [µM] | PNC IC50(μM) [1] | ATP IC50(μM) [2] | further results |
| --- | --- | --- | --- | --- |
| N=c1c2c(-c3ccccc3)c(-c3ccccc3)n(Cc3ccccc3)c2ncn1C1CCOCC1 [Compound 1] | 152 |  |  | AC50 [1]: 0.09 µM; IC50 [1]: 0.03 µM; IC50 (PC3M cells [3]; [5]): 5.01 µM; IC50 (PC3M cells [3]; [6]): 3.16 µM |
| N=c1c2c(-c3ccccc3)c(-c3ccccc3)n(Cc3ccccc3)c2ncn1[C@H]1CC[C@H](O)CC1 [Compound 2, trans-4-(7-Benzyl-4-imino-5,6-diphenyl-4,7-dihydro-3H-pyrrolo[2,3-d]pyrimidin-3-yl)cyclohexanol] | 19.2 |  |  | AC50 [1]: 0.4 µM; IC50 [1]: 0.024 µM; IC50 (PC3M cells [3]; [5]): 3.98 µM; IC50 (PC3M cells [3]; [6]): 3.16 µM; cell viability in soft agar assay (PC3M cells [4]): no impact on cell viability; number of PC3M soft agar colonies (PC3M cells [4]): dose dependent reduction in the number of colonies |
| N=c1c2c(-c3ccccc3)cn(Cc3ccccc3)c2ncn1[C@@H]1CCCC[C@H]1N [Compound 117] | 96.1 | inactive |  |  |
| C[C@H]([C@@H](O)c1ccccc1)n1cnc2c(c(-c3ccccc3)cn2Cc2ccccc2)c1=N [Compound 119] | 121 | inactive |  |  |
| COc1ccc(-c2c(-c3ccc(OC)cc3)n(Cc3ccccc3)c3ncn(CC4CCOCC4)c(=N)c23)cc1 [Compound 123] | 24.1 | inactive |  |  |
| N=c1c2c(-c3ccccc3)cn(Cc3ccccc3)c2ncn1CCCN1CCN(c2ccccc2)CC1 [Compound 125] | 30.4 | inactive |  |  |
| N=c1c2c(-c3ccccc3)c(-c3ccccc3)n(Cc3ccccc3)c2ncn1CC1COC1 [Compound 126] | 96.1 | inactive |  |  |
| COC(=O)C[C@@H](C(=O)OC)n1cnc2c(c(-c3ccccc3)cn2Cc2ccccc2)c1=N [Compound 128] |  | inactive | inactive |  |
| COc1ccc(-c2c(-c3ccc(OC)cc3)n(Cc3ccccc3)c3ncn(CC4COC4)c(=N)c23)cc1 [Compound 129] |  | inactive | inactive |  |
| COc1ccc(CCn2cnc3c(c(-c4ccccc4)cn3Cc3ccccc3)c2=N)cc1OC [Compound 130] | 24.1 | inactive |  |  |
| COc1ccc(-c2c(-c3ccc(OC)cc3)n(Cc3ccccc3)c3ncn([C@H]4CC[C@@H](O)CC4)c(=N)c23)cc1 [Compound 132] |  | inactive | inactive |  |
| N=c1c2c(-c3ccccc3)c(-c3ccccc3)n(CC3CC3)c2ncn1CC1CCOCC1 [Compound 134] | 60.7 | inactive |  |  |
| COc1ccc(-c2c(-c3ccc(OC)cc3)n(Cc3ccccc3)c3ncn(CCCO)c(=N)c23)cc1 [Compound 135] | 30.4 | inactive |  |  |
| OCCNc1ncnc2c1c(-c1ccccc1)c(-c1ccccc1)n2Cc1ccco1 [Compound 137] |  | inactive | inactive |  |
| CC(C)Cn1cnc2c(c(-c3ccccc3)c(-c3ccccc3)n2Cc2ccco2)c1=N [Compound 141] | 20.4 |  |  | IC50 [1]: 15.8 µM |

The next lines start with results.

| IC50 [2] [µM] | PNC IC50(μM) [1] | ATP IC50(μM) [2] | Structure (SMILES) | further results |
| --- | --- | --- | --- | --- |
| 121 | inactive |  | N=c1c2c(-c3ccccc3)cn(Cc3ccccc3)c2ncn1CCCO [Compound 118] |  |
| 241 | inactive |  | N=c1c2c(-c3ccccc3)cn(Cc3ccccc3)c2ncn1CCCCO [Compound 120] |  |
| 121 | inactive |  | COC(=O)c1ccc(Cn2cnc3c(c(-c4ccccc4)cn3Cc3ccccc3)c2=N)cc1 [Compound 121] |  |
|  | inactive | inactive | N=c1c2c(-c3ccccc3)cn(Cc3ccccc3)c2ncn1C1CCOCC1 [Compound 122] |  |
|  | inactive | inactive | C#CCn1cnc2c(c(-c3ccccc3)cn2Cc2ccccc2)c1=N [Compound 124] |  |
| 96.1 | inactive |  | N=c1c2c(-c3ccccc3)cn(Cc3ccccc3)c2ncn1CC1CCCO1 (stereo not drawn) [Compound 127] |  |
| 121 | inactive |  | N=c1c2c(-c3ccccc3)cn(Cc3ccccc3)c2ncn1CCNCCO [Compound 131] |  |
|  | inactive | inactive | N=c1c2c(-c3ccccc3)cn(Cc3ccccc3)c2ncn1CCN [Compound 136] |  |
| 60.7 | inactive |  | N=c1c2c(-c3ccccc3)cn(Cc3ccccc3)c2ncn1Cc1ccco1 [Compound 138] |  |
|  | inactive | inactive | N=c1c2c(-c3ccccc3)cn(Cc3ccccc3)c2ncn1[C@H]1CC[C@H](O)CC1 [Compound 139] |  |
|  | inactive | inactive | N=c1c2c(-c3ccccc3)cn(Cc3ccccc3)c2ncn1CCO [Compound 140] |  |
